Patent US11530244B2, “Cyclic polypeptides for PCSK9 inhibition” (priority 2018, dated 2022)
Starred links: 1 amine or outer side, 2 acyl side, 3 side chain; linkers in the order of their positions; H or OH if unused. Positions of bridges follow the written chain, without caps; N, C: chain ends. Non-standard residues stand in square brackets, D forms with d. Residues, ends and D or L forms follow the SMILES beside them. Triazole bridges read from a SMILES are 1,4-linked. Phe(4-COOH) = N[C@@H](Cc1ccc(C(=O)O)cc1)C(=O)O; Trp(5-F) = N[C@@H](Cc1c[nH]c2ccc(F)cc12)C(=O)O; X30 = COc1ccc(C[C@H](N[*:1])C(=O)[*:2])cc1Cl; X12 = O=C([C@H](CCCCC=[*:3])N[*:1])[*:2]; Lys(N3) = [N-]=[N+]=NCCCC[C@H](N)C(=O)O; X4 = O=C(CCSCc1cccc(CSCCN[*:1])c1)[*:2]; mXylylene = c1cc(C[*:1])cc(C[*:2])c1; AEF = NCCOc1ccc(C[C@H](N)C(=O)O)cc1; Glutaryl = O=C(CCCC(=O)[*:2])[*:1]; aThr = C[C@H](O)[C@H](N)C(=O)O; αMeP = C[C@@]1(C(=O)O)CCCN1; Hpra = C#CCC[C@H](N)C(=O)O; Orn = NCCC[C@H](N)C(=O)O; Mpa = O=C(O)CCS

Key:
[1] = target: human PCSK9 / human LDLR EGFa domain interaction (Homo sapiens (Human), UniProt Q8NBP7); assay: TR-FRET assay of inhibition of the PCSK9-LDLR protein-protein interaction; type: binding; conditions: TR-FRET, 20 nM human PCSK9, 20 nM human LDLR EGFa domain, 2 hours room temperature; read-out: IC50
Chain of human PCSK9 / human LDLR EGFa domain interaction (Q8NBP7 153-692): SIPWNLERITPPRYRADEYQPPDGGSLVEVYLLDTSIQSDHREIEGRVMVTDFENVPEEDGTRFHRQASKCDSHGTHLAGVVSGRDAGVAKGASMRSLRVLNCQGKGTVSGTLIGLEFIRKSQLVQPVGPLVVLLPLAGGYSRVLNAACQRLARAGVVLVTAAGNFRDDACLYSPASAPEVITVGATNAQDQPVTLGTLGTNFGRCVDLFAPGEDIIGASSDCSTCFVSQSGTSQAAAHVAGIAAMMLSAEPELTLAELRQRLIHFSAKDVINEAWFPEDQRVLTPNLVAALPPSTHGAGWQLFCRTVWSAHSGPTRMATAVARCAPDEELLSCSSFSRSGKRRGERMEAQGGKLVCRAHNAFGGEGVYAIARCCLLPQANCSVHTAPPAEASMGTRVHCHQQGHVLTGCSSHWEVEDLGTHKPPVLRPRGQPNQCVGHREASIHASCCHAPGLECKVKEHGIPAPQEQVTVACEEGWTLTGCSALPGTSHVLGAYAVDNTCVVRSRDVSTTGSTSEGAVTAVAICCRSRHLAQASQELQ
Chain of human PCSK9 / human LDLR EGFa domain interaction (Q8NBP7 31-152 partner): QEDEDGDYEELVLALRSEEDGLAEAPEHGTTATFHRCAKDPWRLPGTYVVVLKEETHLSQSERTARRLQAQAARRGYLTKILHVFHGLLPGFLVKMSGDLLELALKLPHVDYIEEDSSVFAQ
Summary of the method: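 Readout is the TR-FRET signal between europium anti-6×His on his-tagged LDLR EGFa domain and Ulight streptavidin on biotinylated PCSK9, both proteins at 20 nM and both detection reagents at 5 nM. Incubation lasted 2 hours at room temperature; compounds were run in dose-response with a 4-parameter fit.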

PCSK9 = PCSK9 (Homo sapiens (Human), UniProt Q8NBP7); assay: PCSK9 Alexa FRET Standard assay (displacement of AlexaFluor647 tagged cyclic peptide Reagent A); type: binding; conditions: PCSK9 Alexa FRET Standard assay, 0.5 nM PCSK9, 20 nM AF cyclic peptide Reagent A; read-out: IC50
Chain of PCSK9 (Q8NBP7 153-692): as the sequence (Q8NBP7 153-692) above
Summary of the method: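 TR-FRET displacement: 0.5 nM biotinylated PCSK9 with 1.25 nM Strep-Eu and 20 nM AlexaFluor-tagged cyclic peptide (final) in 50 mM HEPES pH 7.4, 0.15 M NaCl, 5 mM CaCl2, 0.01% BSA, 0.01% P20, ≥2 h at room temperature. IC50 from sigmoidal fit, converted to Ki via peptide KD; falling Eu counts flagged false positives.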

IC50 [1]	IC50 (PCSK9)	SMILES
100 to 1000 nM	100 to 1000 nM	COc1ccc(C[C@@H]2NC(=O)[C@@H]3CC/C=C\CO[C@H]4C[C@@H](C(=O)N3)N(C4)C(=O)[C@H](Cc3c[nH]c4ccc(F)cc34)NC(=O)[C@H](Cc3c[nH]c4ccc(F)cc34)NC(=O)[C@@H](C)NC(=O)[C@H](C)NC(=O)[C@@H](NC(C)=O)CC(=O)NCc3ccc(cc3)C[C@@H](C(=O)O)NC(=O)[C@]3(C)CCCN3C2=O)cc1 [Compound 514]
100 to 1000 nM	0.11 to 100 nM	COc1ccc(C[C@@H]2NC(=O)[C@H]([C@@H](C)O)NC(=O)[C@@H]3CCCC/C=C\CCCC[C@H](NC(=O)[C@@H](C)NC(=O)[C@H](C)NC(=O)CCSCc4cccc(c4)CSCCNC(=O)[C@]4(C)CCCN4C2=O)C(=O)N[C@@H](Cc2c[nH]c4ccc(F)cc24)C(=O)N3)cc1 [Compound 495] (cyclo(A[dA][X12][Trp(5-F)][X12]TY(Me)[αMeP][X4]); staple (Z) 3-5)
100 to 1000 nM	1000 to 12100 nM	COc1ccc(C[C@@H]2NC(=O)[C@H](Cc3cnc[nH]3)NC(=O)[C@H](CC(=O)O)NC(=O)[C@H](Cc3c[nH]c4ccc(F)cc34)NC(=O)[C@H](Cc3c[nH]c4ccc(F)cc34)NC(=O)[C@@H](C)NC(=O)CCCC(=O)NCCOc3ccc(cc3)C[C@@H](C(N)=O)NC(=O)[C@]3(C)CCCN3C2=O)cc1 [Compound 400] ([dA][Trp(5-F)][Trp(5-F)]DHY(Me)[αMeP][AEF]-NH2; linker N-8 via Glutaryl)
0.1 to 100 nM	0.11 to 100 nM	COc1ccc(C[C@@H]2NC(=O)[C@@H]3CCCCC(=O)N[C@H]4C[C@@H](C(=O)N3)N(C4)C(=O)[C@H](Cc3c[nH]c4ccc(F)cc34)NC(=O)[C@H](Cc3c[nH]c4ccc(F)cc34)NC(=O)[C@@H](C)NC(=O)[C@H](CCCN)NC(=O)CCSCc3cccc(c3)CCSCNC(=O)[C@]3(C)CCCN3C2=O)cc1 [Compound 521]

More lines, now with the values behind:

SMILES	IC50 [1]	IC50 (PCSK9)
C[C@@]12CCCN1C(=O)[C@H](Cc1ccc(O)cc1)NC(=O)[C@H](Cc1cnc[nH]1)NC(=O)[C@H](CC(=O)O)NC(=O)[C@H](Cc1c[nH]c3ccc(F)cc13)NC(=O)[C@H](Cc1c[nH]c3ccc(F)cc13)NC(=O)CNC(=O)[C@H](CCCN)NC(=O)CCSCc1cccc(c1)CSC[C@@H](C(N)=O)NC2=O [Compound 248] ([Mpa][Orn]G[Trp(5-F)][Trp(5-F)]DHY[αMeP]C-NH2; linker 1-10 via mXylylene)	0.1 to 100 nM	100 to 1000 nM
COc1ccc(C[C@@H]2NC(=O)[C@H](Cc3c[nH]cn3)NC(=O)[C@H](CC(=O)O)NC(=O)[C@H](Cc3c[nH]c4ccc(F)cc34)NC(=O)[C@H](Cc3c[nH]c4ccc(F)cc34)NC(=O)[C@@H](C)NC(=O)[C@H](CCCCN)NC(=O)CCSCc3cccc(c3)CSCCNC(=O)[C@]3(C)CCCN3C2=O)cc1Cl [Compound 386] (cyclo(DH[X30][αMeP][X4]K[dA][Trp(5-F)][Trp(5-F)]))	0.1 to 100 nM	100 to 1000 nM
COc1ccc(C[C@@H]2NC(=O)[C@H](Cc3cnc[nH]3)NC(=O)[C@H](CC(=O)O)NC(=O)[C@H](Cc3c[nH]c4ccc(F)cc34)NC(=O)[C@H](Cc3c[nH]c4ccc(F)cc34)NC(=O)[C@H](C)NC(=O)[C@H](NC(C)=O)CCc3cn(nn3)-c3ccc(cc3)C[C@@H](C(N)=O)NC(=O)[C@]3(C)CCCN3C2=O)cc1 [Compound 392]	0.1 to 100 nM	100 to 1000 nM
C[C@H](O)[C@@H]1NC(=O)[C@@H]2CCCN2C(=O)[C@H](Cc2c[nH]c3ccc(F)cc23)NC(=O)[C@H](Cc2c[nH]c3ccc(F)cc23)NC(=O)CNC(=O)[C@H](CCCCN)NC(=O)CCSCc2cccc(c2)CSC[C@@H](C(N)=O)NC(=O)[C@]2(C)CCCN2C(=O)[C@H](Cc2ccc(O)cc2)NC1=O [Compound 050] ([Mpa]KG[Trp(5-F)][Trp(5-F)]P[aThr]Y[αMeP]C-NH2; linker 1-10 via mXylylene)	21000 to 50000 nM	21000 to 50000 nM
CC(=O)N[C@H]1CCc2cn(nn2)CCCC[C@@H](C(N)=O)NC(=O)[C@]2(C)CCCN2C(=O)[C@H](Cc2ccc(O)cc2)NC(=O)[C@H](Cc2cnc[nH]2)NC(=O)[C@H](CC(=O)O)NC(=O)[C@H](Cc2c[nH]c3ccc(F)cc23)NC(=O)[C@H](Cc2c[nH]c3ccc(F)cc23)NC(=O)CNC(=O)[C@H](C)NC1=O [Compound 339] (Ac-[Hpra]AG[Trp(5-F)][Trp(5-F)]DHY[αMeP][Lys(N3)]-NH2; triazole 1-10)	1000 to 12100 nM	1000 to 12100 nM
CC(=O)N[C@@H]1CCCCNC(=O)c2ccc(cc2)C[C@@H](C(N)=O)NC(=O)[C@]2(C)CCCN2C(=O)[C@H](Cc2ccc(O)cc2)NC(=O)[C@H](Cc2cnc[nH]2)NC(=O)[C@H](CC(=O)O)NC(=O)[C@H](Cc2c[nH]c3ccc(F)cc23)NC(=O)[C@H](Cc2c[nH]c3ccc(F)cc23)NC(=O)CNC1=O [Compound 255] (Ac-[dK]G[Trp(5-F)][Trp(5-F)]DHY[αMeP][Phe(4-COOH)]-NH2; lactam 1-9)	100 to 1000 nM	100 to 1000 nM
